From article PMC10669220, “In Vitro α-Glucosidase and α-Amylase Inhibition, Cytotoxicity and Free Radical Scavenging Profiling of the 6-Halogeno and Mixed 6,8-Dihalogenated 2-Aryl-4-methyl-1,2-dihydroquinazoline 3-Oxides” (Antioxidants, 2023)
Where two headings read alike, the source gives them in different places.

Assays:
[1] = DPPH radical scavenging assay; settings: mean ± SD; 45 min in the dark; 512 nm
Experimental: The DPPH radical scavenging assay was conducted following the procedure described in our previous study. The test compounds and ascorbic acid at various concentrations (ranging from 0 µM to 50 µM) in DMSO were mixed with a solution of DPPH (0.20 mM) in methanol and incubated in the dark for 45 min. Five absorbance readings were recorded at 512 nm using an Elisa plate reader (Varioskan Flash, ThermoFisher Scientific, Vantaa, Finland). The experiment was carried out in triplicate, and averaged values from the absorbance readings were used to determine the IC50 and standard deviation values in GraphPad prism from nonlinear regression dose–response curves.

[2] = system: human embryonic kidney (HEK293-T) cell line; assay: MTT cytotoxicity assay, HEK293-T; settings: for IC50: read-out: IC50 Hek293-T; for Cell viability percentage, HEK293-T: Table S4
Experimental: (§1) Cells were cultured in sterile Dulbecco’s Minimal Essential Medium (DMEM, Gibco) supplemented with 10% fetal bovine serum (FBS) and 1% penicillin-streptomycin solution. […] Cell counting was carried out using a handheld automated cell counter (Scapter 3.0™, Merck, Burlington, MA, USA) and seeded (1 × 10^4 cells/well) into a 96-well plate. After 24 h, the cells were treated with different concentrations (1, 5, 10, 25 and 50 µM) of the test compounds and reference standards prepared in DMEM. The MTT solution (20 μL) prepared in PBS (5 mg/mL) was added to all the wells, and the plates were incubated for 4 h, followed by 1 h incubation with 100 µL of dimethyl sulfoxide (DMSO) to dissolve the formazan crystals. Untreated cells and 5% DMSO were included in the experiment as negative controls. All experiments were performed in triplicate. The plates were read at 570 nm at a reference wavelength of 630 nm using an ELISA plate reader (Varioskan Flash, ThermoFisher Scientific, Vantaa, Finland). The percentage of cell viability was calculated using the following formula, Cell viability %=At/Ab×100 where At represents the absorbance value of test compound and Ab the absorbance value of the blank. […] The data were expressed as means ± SD.

[3] = MTT cytotoxicity assay, HEK293-T; settings: human, HEK293-T cells
Experimental: as §1

human α-amylase = biological target: T1, human α-amylase (Homo sapiens, UniProt P04746); assay: α-amylase inhibitor screening kit assay; format: biochemical; settings: mean ± SD, triplicate; tested at 1, 5, 10, 25, 50 µM
T1 construct: purchased Abcam ab283391
T1 sequence (P04746 16-511): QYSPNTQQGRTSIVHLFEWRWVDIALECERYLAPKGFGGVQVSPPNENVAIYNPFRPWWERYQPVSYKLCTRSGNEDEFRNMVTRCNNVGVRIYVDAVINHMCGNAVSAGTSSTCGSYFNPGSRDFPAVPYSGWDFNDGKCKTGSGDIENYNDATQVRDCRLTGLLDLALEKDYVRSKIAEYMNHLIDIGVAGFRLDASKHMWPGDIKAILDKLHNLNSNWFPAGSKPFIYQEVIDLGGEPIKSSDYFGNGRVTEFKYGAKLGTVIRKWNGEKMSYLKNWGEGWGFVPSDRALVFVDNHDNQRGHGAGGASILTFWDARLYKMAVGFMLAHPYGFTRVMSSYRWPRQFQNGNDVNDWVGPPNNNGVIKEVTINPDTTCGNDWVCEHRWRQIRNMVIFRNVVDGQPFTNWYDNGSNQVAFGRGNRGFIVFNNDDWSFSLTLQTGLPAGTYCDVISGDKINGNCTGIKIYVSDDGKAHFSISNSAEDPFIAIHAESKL
Experimental: The α-amylase assay was performed in triplicate, using a 96-well plate following the procedure recommended by the manufacturer as outlined in the α-amylase inhibitor Screening Kit (Catalogue No. ab283391; Abcam). […] The average values obtained from the absorbance readings were used to determine the IC50 and standard deviation values in GraphPad prism from nonlinear regression dose–response curves.

[4] = NO free radical scavenging assay (sodium nitroprusside/Griess); settings: mean ± SD; sodium nitroprusside, Griess reagent, 550 nm
Experimental: The assay was conducted following the method described in our previous study. A mixture of 10 mM sodium nitroprusside (20 µL), phosphate buffer (5 µL) and the test compound (5 µL) were incubated at 25 °C in a 96-well plate for 2.5 h. After incubation, 20 µL of Griess reagent (1.00 g of sulfanilic acid + 0.10 g naphthylethylene diamine dihydrochloride) was added to the previous mixture and allowed to stand for 30 min. […] Each experiment was performed in triplicate, and the average was taken. The average obtained from the absorbance readings was used to calculate the IC50 values in GraphPad prism from nonlinear regression dose–response curves.

[5] = system: breast cancer (MCF-7) cell line; assay: MTT cytotoxicity assay, MCF-7; settings: for Cell viability percentage, MCF-7: Table S2
Experimental: as §1

[6] = system: lung cancer (A549) cell line; assay: MTT cytotoxicity assay, A549; settings: for Cell viability percentage, A549: Table S3
[7] = biological target: T2, α-Glucosidase type 1 from baker's yeast (Saccharomyces cerevisiae, UniProt P53341); assay: biochemical; settings: mean ± SD, triplicate, tested at 1, 5, 10, 25, 50 µM
T2 construct: purchased Sigma Aldrich (Pty) Ltd. G5003
T2 sequence (P53341 whole entry): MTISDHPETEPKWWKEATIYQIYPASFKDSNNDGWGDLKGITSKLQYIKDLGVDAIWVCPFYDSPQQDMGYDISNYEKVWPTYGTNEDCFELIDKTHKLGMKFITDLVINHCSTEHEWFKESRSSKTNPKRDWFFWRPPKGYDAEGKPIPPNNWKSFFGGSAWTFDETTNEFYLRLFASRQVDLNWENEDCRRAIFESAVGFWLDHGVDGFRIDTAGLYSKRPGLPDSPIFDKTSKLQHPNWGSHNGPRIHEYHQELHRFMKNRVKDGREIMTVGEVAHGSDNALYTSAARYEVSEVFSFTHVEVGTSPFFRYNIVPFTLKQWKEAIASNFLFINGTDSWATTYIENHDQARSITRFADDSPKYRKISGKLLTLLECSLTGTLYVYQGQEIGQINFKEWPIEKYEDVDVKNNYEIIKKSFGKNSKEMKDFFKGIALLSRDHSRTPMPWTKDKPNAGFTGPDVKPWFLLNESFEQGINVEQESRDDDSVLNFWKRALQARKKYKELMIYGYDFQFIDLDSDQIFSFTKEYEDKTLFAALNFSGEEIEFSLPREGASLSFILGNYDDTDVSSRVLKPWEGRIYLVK
Experimental: The assay was conducted in triplicate following a method described in our previous study. […] After pre-incubation, 17 µL of 2 mM PNP-G was added. The absorbances were recorded in a 96-well microplate at 400 nm using an Elisa plate reader (Varioskan Flash, ThermoFischer Scientific, Vantaa, Finland). The average values obtained from the readings were used to determine the IC50 and standard deviation values using a GraphPad Prism software (Version 8, GraphPad Software Inc., San Diego, CA, USA). The average values obtained from the absorbance readings were used to determine the IC50 and standard deviation values in GraphPad prism from nonlinear regression dose–response curves.

[8] = Homo sapiens, MCF7, read-out: IC50 MCF-7
[9] = Homo sapiens, A549, read-out: IC50 A549

Row | SMILES | IC50 [1] [µM] | IC50 ([2]; Homo sapiens, HEK-293T) [µM] | viability at 1 µM [3] [%] | viability at 5 µM [3] [%] | viability at 10 µM [3] [%] | viability at 25 µM [3] [%] | IC50 (human α-amylase) [µM] | IC50 [4] [µM] | Cell viability percentage, MCF-7 ([5]; Conc. 1 (µM per method)) | Cell viability percentage, MCF-7 ([5]; Conc. 5 (µM per method)) | Cell viability percentage, MCF-7 ([5]; Conc. 10 (µM per method)) | Cell viability percentage, MCF-7 ([5]; Conc. 25 (µM per method)) | Cell viability percentage, MCF-7 ([5]; Conc. 50 (µM per method)) | IC50 [5, 8] [µM] | Cell viability percentage, A549 ([6]; Conc. 1 (µM per method)) | Cell viability percentage, A549 ([6]; Conc. 5 (µM per method)) | Cell viability percentage, A549 ([6]; Conc. 10 (µM per method)) | Cell viability percentage, A549 ([6]; Conc. 25 (µM per method)) | Cell viability percentage, A549 ([6]; Conc. 50 (µM per method)) | IC50 [6, 9] [µM] | further results
1 | COc1ccc(C2Nc3ccc(I)cc3C(C)=[N+]2[O-])cc1 (centres unmarked) [Compound 3h] | 0.21 ± 0.057 | 24.26 ± 0.04 | 33.3 | 32.6 | 30.8 | 29.7 | 55.72 ± 0.02 | 10.05 ± 0.003 | 45,0932% | 44,5775% | 43,1304% | 41,2009% | 37,5083% | 22.62 ± 0.12 | 87,7714% | 86,9389% | 64,8667% | 56,0806% | 38,362% | 18.71 ± 0.16 | melting point: 176 to 179 °C; viability at 50 µM [3]: 28.1%; IC50 ([7]; IC50 α-Glucosidase): 27.18 ± 0.02 µM
2 | CC1=[N+]([O-])C(c2ccc(Cl)cc2)Nc2ccc(I)cc21 (racemic) [Compound 3g] | 26.88 ± 0.043 |  |  |  |  |  | 53.42 ± 0.01 | 4.25 ± 0.005 | 42,0991% | 37,841% | 36,5769% | 35,8117% | 33,9155% |  | 72,7416% | 56,2268% | 50,6131% | 43,0757% | 33,0296% |  | Cell viability percentage, HEK293-T ([2]; Conc. 1 (µM per method)): 63,41%; Cell viability percentage, HEK293-T ([2]; Conc. 5 (µM per method)): 46,5251%; Cell viability percentage, HEK293-T ([2]; Conc. 10 (µM per method)): 41,062%; Cell viability percentage, HEK293-T ([2]; Conc. 25 (µM per method)): 31,41%; Cell viability percentage, HEK293-T ([2]; Conc. 50 (µM per method)): 17,0502%; IC50 ([2]; MTT, normal cell line, mean ± SD, triplicate, 1-50 µM): 21.7 ± 0.13 µM; IC50 ([5]; read-out: IC50 MCF-7, MTT, mean ± SD, triplicate, 1-50 µM): 10.38 ± 0.08 µM; IC50 ([6]; read-out: IC50 A549, MTT, mean ± SD, triplicate, 1-50 µM): 18.63 ± 0.11 µM; IC50 ([7]; read-out: IC50 α-Glucosidase): 15.08 ± 0.08 µM
3 | CC1=[N+]([O-])C(c2ccc(F)cc2)Nc2ccc(Br)cc21 (centres unmarked) [Compound 3b] | 1.07 ± 0.048 | 41.72 ± 0.04 | 41.6 | 41.3 | 40.3 | 38.5 | 36.35 ± 0.01 | 15.1 ± 0.029 | 39,7538% | 38,34% | 35,1963% | 33,8157% | 30,3061% | 12.8 ± 0.07 | 69,0066% | 60,8505% | 56,1818% | 42,7495% | 28,8446% | 19.31 ± 0.08 | melting point: 183 to 185 °C; viability at 50 µM [3]: 35.8%; IC50 ([7]; IC50 α-Glucosidase): 7.47 ± 0.05 µM
4 | CC1=[N+]([O-])C(c2ccccc2)Nc2ccc(I)cc21 (centres unmarked) [Compound 3e] | 1.1 ± 0.031 | 20.12 ± 0.06 | 69.7 | 60 | 40 | 31.9 | 49.5 ± 0.06 | 52.38 ± 0.003 | 27,8443% | 22,0559% | 23,6194% | 19,7272% | 17,2488% | 15.83 ± 0.14 | 74,9578% | 64,338% | 52,0419% | 40,2408% | 30,3184% | 11.4 ± 0.12 | melting point: 184 to 186 °C; viability at 50 µM [3]: 20%; IC50 ([7]; IC50 α-Glucosidase): 6.04 ± 0.01 µM
5 | CC1=[N+]([O-])C(c2ccc(Cl)cc2)Nc2c(I)cc(Br)cc21 (centres unmarked) [Compound 3k] | 4.08 ± 0.038 | 21.04 ± 0.05 | 61.3 | 55.4 | 42.5 | 31.6 | 4.46 ± 0.02 | 15 ± 0.005 | 42,1823% | 41,6001% | 39,6041% | 38,7891% | 38,1737% | 16.65 ± 0.05 | 78,5578% | 73,6416% | 60,0068% | 42,682% | 32,6808% | 15.37 ± 0.13 | viability at 50 µM [3]: 24%; IC50 ([7]; read-out: IC50 α-Glucosidase): 13.47 ± 0.04 µM
6 | COc1cccc2c1C(=O)c1c(O)c3c(c(O)c1C2=O)C[C@@](O)(C(=O)CO)C[C@@H]3O[C@H]1C[C@H](N)[C@H](O)[C@H](C)O1 [Doxorubicin, doxorubicin, reference compound] |  | 0.87 ± 0.04 |  |  |  |  |  |  |  |  |  |  |  | 0.25 ± 0.05 |  |  |  |  |  | 0.36 ± 0.07 | 
